Results as given in the NIST ThermoML archive (doi:10.1021/je050183a).

Experiments:
[1] = refractive index (Na D-line) (dimensionless); xn = mol fraction of the nth substance listed; conditions: 298.15 K, 101 kPa, Liquid, Standard Abbe refractometry
[2] = xn = mol fraction of the nth substance listed; conditions: 101 kPa, Liquid; for viscosity: Capillary tube (Ostwald / Ubbelohde) method; for speed of sound: Linear variable-path acoustic interferometer; for mass density: Pycnometric method

CC1OC(C)OC(C)O1 (stereo unspecified) [2,4,6-trimethyl-1,3,5-trioxane] + COC(=O)OC
[1]
Conditions	refractive index
x1 = 0.0204	1.3673
x1 = 0.0409	1.3686
x1 = 0.059	1.3696
x1 = 0.0845	1.3711
x1 = 0.1091	1.3725
x1 = 0.2258	1.3786
x1 = 0.3012	1.382
x1 = 0.3994	1.386
x1 = 0.494	1.3894
x1 = 0.5906	1.3925
x1 = 0.696	1.3956
x1 = 0.808	1.3985
x1 = 0.9289	1.4014
x1 = 1	1.4029

[2]
Conditions	mass density, 288.15 K [kg/m3]	mass density, 298.15 K [kg/m3]	speed of sound, 288.15 K [m/s]	speed of sound, 298.15 K [m/s]	viscosity, 288.15 K [mPa·s]	viscosity, 298.15 K [mPa·s]
x1 = 0.0204	1074.19	1060.99	1242.2	1197.4	0.66	0.59
x1 = 0.0409	1071.96	1058.89	1242.3	1197.3	0.673	0.6
x1 = 0.059	1070.03	1057.07	1242.4	1197.3	0.684	0.609
x1 = 0.0845	1067.35	1054.53	1242.4	1197	0.699	0.62
x1 = 0.1091	1064.81	1052.11	1242.3	1196.8	0.713	0.63
x1 = 0.2258	1053.37	1041.01	1240.4	1194.6	0.77	0.673
x1 = 0.3012	1046.5	1034.2	1238.4	1192.7	0.803	0.697
x1 = 0.3994	1038.14	1025.83	1235	1189.6	0.844	0.727
x1 = 0.494	1030.68	1018.35	1231.2	1186	0.887	0.757
x1 = 0.5906	1023.62	1011.31	1227.2	1182.3	0.936	0.793
x1 = 0.696	1016.52	1004.26	1223.1	1178.5	1.002	0.84
x1 = 0.808	1009.63	997.47	1219.3	1175.3	1.091	0.906
x1 = 0.9289	1002.87	991.2	1216.7	1173.1	1.214	0.998
x1 = 1	999.69	988.35	1217.7	1174.5	1.374	1.107

CC1OC(C)OC(C)O1 (stereo unspecified) [2,4,6-trimethyl-1,3,5-trioxane] + CCOC(=O)OCC
[1]
Conditions	refractive index
x1 = 0.0215	1.3835
x1 = 0.0425	1.384
x1 = 0.0615	1.3844
x1 = 0.0816	1.3848
x1 = 0.1036	1.3853
x1 = 0.1911	1.3873
x1 = 0.317	1.3901
x1 = 0.4272	1.3926
x1 = 0.5162	1.3945
x1 = 0.608	1.3963
x1 = 0.7032	1.3982
x1 = 0.7984	1.3999
x1 = 0.8957	1.4015
x1 = 1	1.4029

[2]
Conditions	mass density, 288.15 K [kg/m3]	mass density, 298.15 K [kg/m3]	speed of sound, 288.15 K [m/s]	speed of sound, 298.15 K [m/s]	viscosity, 288.15 K [mPa·s]	viscosity, 298.15 K [mPa·s]
x1 = 0.0215	980.99	969.57	1224	1173.8	0.877	0.756
x1 = 0.0425	981.54	969.99	1222.6	1174.2	0.885	0.763
x1 = 0.0615	982.03	970.36	1221.4	1174.5	0.892	0.768
x1 = 0.0816	982.54	970.76	1220.3	1174.8	0.899	0.774
x1 = 0.1036	983.08	971.19	1219.1	1175	0.906	0.779
x1 = 0.1911	985.12	972.92	1215.7	1175.6	0.931	0.798
x1 = 0.317	987.74	975.41	1213.4	1175.3	0.959	0.819
x1 = 0.4272	989.8	977.57	1213.2	1174.4	0.985	0.836
x1 = 0.5162	991.35	979.28	1213.8	1173.5	1.011	0.854
x1 = 0.608	992.87	981	1214.8	1172.6	1.047	0.878
x1 = 0.7032	994.41	982.74	1215.7	1171.9	1.098	0.913
x1 = 0.7984	995.94	984.41	1216.2	1171.5	1.167	0.962
x1 = 0.8957	997.54	986.04	1216.7	1171.8	1.26	1.028
x1 = 1	999.69	988.35	1217.7	1174.5	1.374	1.107
